The target in the assay is human activated kallikrein enzyme (Homo sapiens, UniProt P03952). Briefly: Inhibition of human activated plasma kallikrein, fluorogenic PFR-AMC substrate, 500 pM enzyme format. It is filed as biochemical. Conditions: 500 pM activated kallikrein; 300 μM PFR-AMC; 30 min preincubation; 10 min room temperature; pH 7.5; read-out: Primary Dose Response Assay: Average EC50. The gist of the method: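 Using fluorogenic PFR-AMC at 300 μM, cleavage by 500 pM human activated kallikrein ran 10 min at room temperature, read at 460 nm emission (380 nm excitation). Enzyme and compounds were first preincubated 30 min in 20 mM Tris pH 7.5, 150 mM NaCl, 1 mM EDTA, 0.1% PEG-400, 0.1% Triton X-100.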
Sequence of human activated kallikrein enzyme (P03952 391-638 limits assumed): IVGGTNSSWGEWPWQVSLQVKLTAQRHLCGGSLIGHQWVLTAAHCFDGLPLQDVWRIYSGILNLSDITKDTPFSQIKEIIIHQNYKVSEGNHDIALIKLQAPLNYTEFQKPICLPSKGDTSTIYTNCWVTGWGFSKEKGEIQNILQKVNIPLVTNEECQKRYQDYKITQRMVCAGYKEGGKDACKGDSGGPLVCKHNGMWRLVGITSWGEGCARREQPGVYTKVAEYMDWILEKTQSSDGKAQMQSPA
Sequence of human activated kallikrein enzyme (P03952 20-390 partner limits assumed): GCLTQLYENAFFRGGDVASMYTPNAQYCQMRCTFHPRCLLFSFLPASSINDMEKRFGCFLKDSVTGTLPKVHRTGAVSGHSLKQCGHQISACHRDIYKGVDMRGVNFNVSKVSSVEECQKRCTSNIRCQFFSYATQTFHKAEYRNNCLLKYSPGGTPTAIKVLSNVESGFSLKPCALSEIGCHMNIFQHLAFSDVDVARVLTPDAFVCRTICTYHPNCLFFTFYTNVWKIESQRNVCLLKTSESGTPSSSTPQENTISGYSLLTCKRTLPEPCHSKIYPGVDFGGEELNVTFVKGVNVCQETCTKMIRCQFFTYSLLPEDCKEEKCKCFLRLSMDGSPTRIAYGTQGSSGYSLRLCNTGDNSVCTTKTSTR

What is called EC50 is the concentration needed to bring the measured effect to its halfway point. Consider `Cc1cc2c(N)nccc2c(C)c1CNC(=O)c1cnn(Cc2ccc(CC(=O)NCc3ccccc3)cc2)c1` [Example 229, N-((1-amino-5,7-dimethylisoquinolin-6-yl)methyl)-1-(4-(2-(benzylamino)-2-oxoethyl)benzyl)-1H-pyrazole-4-carboxamide], for which the EC50 was 10 to 100 nM.
Then `CNC(=O)Cc1ccc(Cn2cc(C(=O)NCc3c(C)cc4c(N)nccc4c3C)cn2)cc1` [Example 230, N-((1-amino-5,7-dimethylisoquinolin-6-y1)methy1)-1-(4-(2-(methylamino)-2-oxoethyl)benzyl)-1H-pyrazole-4-carboxamide], with below 1 nM; and `Cc1cc2c(N)nccc2c(C)c1CNC(=O)c1cnn(Cc2ccc(CC(N)=O)cc2)c1` [Example 231, 1-(4-(2-amino-2-oxoethyl)benzyl)-N-((1-amino-5,7-dimethylisoquinolin-6-yl)methyl)-1H-pyrazole-4-carboxamide], with 10 to 100 nM.
As for `Cc1cc2c(N)nccc2c(C)c1CNC(=O)c1cnn(Cc2ccc(CC(=O)N3CCCC3)cc2)c1` [Example 232, N-((1-amino-5,7-dimethylisoquinolin-6-yl)methyl)-1-(4-(2-oxo-2-(pyrrolidin-1-yl)ethyl)benzyl)-1H-pyrazole-4-carboxamide], the EC50 is below 1 nM.
On to `Cc1cc2c(N)nccc2c(C)c1CNc1cc(NCc2ccc3ccccc3c2)ncn1` [Example 233, N4-((1-amino-5,7-dimethylisoquinolin-6-yl)methyl)-N6-(naphthalen-2-ylmethyl)pyrimidine-4,6-diamine], for which the EC50 lay within 10 to 100 nM.
`Cc1cc2c(N)nccc2c(C)c1CNc1ncnc(NCc2ccc(Cn3cccn3)cc2)c1F` [Example 234, N4-(4-((1H-pyrazol-1-yl)methyl)benzyl)-N6-((1-amino-5,7-dimethylisoquinolin-6-yl)methyl)-5-fluoropyrimidine-4,6-diamine]: the EC50 was in the range of 10 to 100 nM.
As to `Cc1cc2c(N)nccc2c(C)c1CNc1cc(N(C)Cc2ccc(Cn3cccn3)cc2)cnn1` [Example 235, N5-(4-((1H-pyrazol-1-yl)methyl)benzyl)-N3-((1-amino-5,7-dimethylisoquinolin-6-yl)methyl)-N5-methylpyridazine-3,5-diamine], the EC50 is below 1 nM.
Regarding `Cc1cc2c(N)nccc2c(C)c1CNc1cc(NCc2ccc(Cn3ccccc3=O)cc2)ncn1` [Example 237, 1-(4-(((6-(((1-amino-5,7-dimethylisoquinolin-6-yl)methyl)amino)pyrimidin-4-yl)amino)methyl)benzyl)pyridin-2(1H)-one], the EC50 is below 1 nM.
With `Cc1cc2c(Nc3cc(OCc4ccc5ncc(C6CC6)cc5c4)ccn3)nccc2c(C)c1CN` [Example 238, 6-(aminomethyl)-N-(4-((3-cyclopropylquinolin-6-yl)methoxy)pyridin-2-yl)-5,7-dimethylisoquinolin-1-amine], the EC50 lay in the range of 100 to 1000 nM.
For `Cc1cc2c(N)nccc2c(C)c1CNc1cc(NCc2ccc3c(-c4ccccn4)cccc3c2)ncn1` [Example 241, N4-((1-amino-5,7-dimethylisoquinolin-6-yl)methyl)-N6-((5-(pyridin-2-yl)naphthalen-2-yl)methyl)pyrimidine-4,6-diamine], the EC50 was 1 to 10 nM.
Turning to `Cc1cc2c(N)nccc2c(C)c1CNc1cc(NCc2ccc3c(-n4ccccc4=O)cccc3c2)ncn1` [Example 245, 1-(6-(((6-(((1-amino-5,7-dimethylisoquinolin-6-yl)methyl)amino)pyrimidin-4-yl)amino)methyl)naphthalen-1-yl)pyridin-2(1H)-one], the EC50 was below 1 nM.
Take `Cc1cc2c(N)nccc2c(C)c1CNc1cc(NCc2ccc3c(-n4cccn4)cccc3c2)ncn1` [Example 246, N4-((5-(1H-pyrazol-1-yl)naphthalen-2-yl)methyl)-N6-((1-amino-5,7-dimethylisoquinolin-6-yl)methyl)pyrimidine-4,6-diamine]: the EC50 was below 1 nM.
As for `CC(=O)Nc1nccc2cc(C)c(CNc3cc(NCc4ccc(Cn5ccccc5=O)cc4)ncn3)c(C)c12` [Example 247, N-(6,8-dimethyl-7-(((6-((4-((2-oxopyridin-1(2H)-yl)methyl)benzyl)amino)pyrimidin-4-yl)amino)methyl)isoquinolin-1-yl)acetamide], the concentration for a half-maximal effect (EC50) fell in the range of 1 to 10 nM.
Consider `Cc1cc2ccnc(NC(=O)OCc3ccccc3)c2c(C)c1CNc1cc(NCc2ccc(Cn3ccccc3=O)cc2)ncn1` [Example 248, benzyl (6,8-dimethyl-7-(((6-((4-((2-oxopyridin-1(2H)-yl)methyl)benzyl)amino)pyrimidin-4-yl)amino)methyl)isoquinolin-1-yl)carbamate], for which the EC50 was in the range of 1 to 10 nM.
Take `CCOC(=O)Nc1nccc2c(C)c(CNc3cc(NCc4ccc(Cn5ccccc5=O)cc4)ncn3)c(C)cc12` [Example 249, ethyl (5,7-dimethyl-6-(((6-((4-((2-oxopyridin-1(2H)-yl)methyl)benzyl)amino)pyrimidin-4-yl)amino)methyl)isoquinolin-1-yl)carbamate]: the EC50 was in the range of 10 to 100 nM.
`Cc1cc2c(N)nccc2c(C)c1CNc1cc(OCc2ccc3ccccc3c2)cnn1` [Example 252, 5,7-dimethyl-6-(((5-(naphthalen-2-ylmethoxy)pyridazin-3-yl)amino)methyl)isoquinolin-1-amine]: the EC50 lay in the range of 10 to 100 nM.
As for `Cc1cc2c(N)nccc2c(C)c1CNc1nccc2nnn(Cc3cn4cc(C5CC5)ccc4n3)c12` [Example 253, 6-(((3-((6-cyclopropylimidazo[1,2-a]pyridin-2-yl)methyl)-3H-[1,2,3]triazolo[4,5-c]pyridin-4-yl)amino)methyl)-5,7-dimethylisoquinolin-1-amine], the EC50 was in the range of 100 to 1000 nM.
With `Cc1cc2c(N)nccc2c(C)c1CNc1nccc2c1nnn2Cc1cn2cc(C3CC3)ccc2n1` [Example 254, 6-(((1-((6-cyclopropylimidazo[1,2-a]pyridin-2-yl)methyl)-1H-[1,2,3]triazolo[4,5-c]pyridin-4-yl)amino)methyl)-5,7-dimethylisoquinolin-1-amine], the EC50 is above 1000 nM.
Take `Cc1c(CN)c(C2(C)CC2)cc2c(Nc3cc(OCc4cn5cc(C6CC6)ccc5n4)ncn3)nccc12` [Example 255, 6-(aminomethyl)-N-(6-((6-cyclopropylimidazo[1,2-a]pyridin-2-yl)methoxy)pyrimidin-4-yl)-5-methyl-7-(1-methylcyclopropyl)isoquinolin-1-amine]: the EC50 was in the range of 100 to 1000 nM.
Regarding `Cc1cc2c(N)nccc2c(C)c1CNc1cc(OCc2cn3cc(C4CC4)cc(-n4c(C)nnc4C)c3n2)ncn1` [Example 257, 6-(((6-((6-cyclopropyl-8-(3,5-dimethyl-4H-1,2,4-triazol-4-yl)imidazo[1,2-a]pyridin-2-yl)methoxy)pyrimidin-4-yl)amino)methyl)-5,7-dimethylisoquinolin-1-amine], the EC50 was 1 to 10 nM.
Then `Cc1cc2c(N)nccc2c(C)c1CNc1nccc2cn(Cc3ccc(Cn4cccn4)cc3)nc12` [Example 260, 6-(((2-(4-((1H-pyrazol-1-yl)methyl)benzyl)-2H-pyrazolo[3,4-c]pyridin-7-yl)amino)methyl)-5,7-dimethylisoquinolin-1-amine], with 1 to 10 nM; and `Cc1cc2c(N)nccc2c(C)c1CNc1nccc2cn(Cc3nc4ccc(C5CC5)cn4n3)nc12` [Example 263, 6-(((2-((6-cyclopropyl-[1,2,4]triazolo[1,5-a]pyridin-2-yl)methyl)-2H-pyrazolo[3,4-c]pyridin-7-yl)amino)methyl)-5,7-dimethylisoquinolin-1-amine], with 1 to 10 nM.

The record behind these values is patent US20260374754A1, “N-((ISOQUINOLIN-6-YL)METHYL)-1H-PYRAZOLE-4-CARBOXAMIDE DERIVATIVES AS PLASMA KALLIKREIN INHIBITORS FOR THE TREATMENT OF HEREDITARY ANGIODEMA” (Takeda Pharmaceutical Company Limited, priority 2022, published 2026).
